The source of these data is PMC12264794, “Homoleptic complexes of titanium(IV) fused with O^N^O Schiff base derivatives: design, BSA–DNA interaction, molecular docking, DFT and cytotoxicity” (RSC Advances, 2025).

The test system of assay [1] is HeLa cells. The experiment in a line: Flow cytometry cell cycle analysis by PI staining. The following applies: 48 h, complexes at IC50, cis-platin 5 μM. The assay is classed as cell-based, human. On the procedure:
A flow cytometer was also used to do the apoptotic assessment. HeLa cells (5 × 10^5) were seeded onto 6-well plates using Dulbecco's Modified Eagle Medium paper (DMEM) with 10% FBS. The plates were incubated overnight at 37 °C with 95% air and 5% CO2. […] Following trypsinization, the cells were collected, cleaned with PBS, and fixed for 24 hours at 2–6 °C in ice-cold 70% ethanol. Centrifugation was used to remove the ethanol, and cold PBS was used twice to wash the cell pellets. Later the cells were stained with propidium iodide (PI, 1 mg mL^−1) and incubated for 30 min. Flow cytometric analysis was performed using a FACS scanner and the Becton Dickinson cell search program at 595 nm and the distribution of cells in various cell cycle phases was determined.[69,70]
Through cell cycle analysis, the mechanism of cancer cell death caused by the complexes was evaluated. Anticancer drugs promote growth-inhibitory action in cancer cells by a variety of mechanisms, one of which is dysfunction in the regulation of the cell cycle.[32] For example, cis-platin inhibits DNA transcription in cells by stopping the cell cycle in the S and G2/M phases. PI staining and flow cytometry were used to examine the ability of the complexes to modify the cell cycle (Fig. 19).
(In general: A flow cytometer gives signals particle by particle.)

Assay [2] relates to CT-DNA. The following applies: constant used in eqn (6); no reference given; cited from earlier work.

Turning to `N.N.[Cl][Pt][Cl]` [Cis-platin, cis-platin, reference compound], in assay [1], the G0/G1 phase is listed as 27.12%, the “M Phase” value was determined as 17.52%, the “S Phase” value was 10.11% and the Sub-G0 phase is on record as 45.25%.
For `CC[n+]1c(-c2ccccc2)c2cc(N)ccc2c2ccc(N)cc21` [EB, ethidium bromide], in assay [2], the “KEtBr, DNA binding constant of EB” value was 1e+07 M⁻¹.
